# Assay results from US20070155687A1, “Methods and compositions for altering cell function” (Alltech, Inc., priority 2005, published 2007).
# How the values were obtained:
# Assay type in all cases: in vivo
# Gst mu 7 (Gstm7) = test: Brain gene expression: Gstm7; details: mouse brain; diet 1 ppm Se, 100 days; * significant relative to Se-deficient animals
# Source text: (§1) Animal Care. Male C57BL/6J mice were housed singly and started on the experimental diets described below immediately after weaning (21 days of age). The mice were maintained in the Shared Aging Rodent Facility at the William S. Middleton Memorial Veterans Administration Medical Center (Madison, Wis.). Temperature and humidity were maintained at constant levels. Room light was controlled to provide 12-hr cycles of light and dark.
# (§2) Experimental diets were created by Harlan Teklad (Madison, Wis.). Selenium content of the diets was determined by Covance Inc. (Madison, Wis.). Five (5) animals were included in each of the following treatment groups: a diet deficient in selenium (SD); a diet supplemented with selenomethionine (SM, obtained from Sigma, St. Louis, Mo.) such that the final selenium content of the diet was one (1) part per million; a diet supplemented with sodium selenite (SS, Sigma) such that the final concentration of selenium in this diet was one (1) part per million; or a diet supplemented with the yeast selenium SEL-PLEX (SP, Alltech, Lexington, Ky), such that the final concentration of selenium in this diet was one (1) part per million. SEL-PLEX. […]
# (§3) Tissue sample preparation and microarray analysis. […] For intestinal expression studies, the intestine was flushed twice with saline solution and small intestine was measured and divided in three equal segments. […]
# [1] = test system: Complement component 1, q subcomponent binding protein, C1qbp; test: Cerebral cortex gene expression: C1qbp; details: mouse cerebral cortex; diet 1 ppm Se, 100 days; vs selenium deficient; * = significant, p<0.01
# Source text: as §1, §2, §3
# Nicastrin = test: Cerebral cortex gene expression: Nicastrin; details: mouse cerebral cortex; diet 1 ppm Se, 100 days; * significant relative to Se-deficient animals, P < 0.01
# Source text: as §1, §2, §3
# Cathepsin D = test: Cerebral cortex gene expression: Cathepsin D; details: mouse cerebral cortex; diet 1 ppm Se, 100 days; * downregulation significant relative to Se-deficient mice
# Source text: as §1, §2, §3
# Gadd45b = test: Brain gene expression: Gadd45b; details: mouse brain; diet 1 ppm Se, 100 days; * significant relative to Se-deficient animals
# Source text: as §1, §2, §3
# [2] = test system: Complement component 1, q subcomponent, alpha polypeptide, C1qa; test: Cerebral cortex gene expression: C1qa; details: mouse cerebral cortex; diet 1 ppm Se, 100 days; vs selenium deficient; * = significant, p<0.01
# Source text: as §1, §2, §3
# Cathepsin B = test: Cerebral cortex gene expression: Cathepsin B; details: mouse cerebral cortex; diet 1 ppm Se, 100 days; * downregulation significant relative to Se-deficient mice
# Source text: as §1, §2, §3
# [3] = test system: Complement component 1, r subcomponent, C1r; test: Cerebral cortex gene expression: C1r; details: mouse cerebral cortex; diet 1 ppm Se, 100 days; vs selenium deficient; * = significant, p<0.01
# Source text: as §1, §2, §3
# Cathepsin Z = test: Cerebral cortex gene expression: Cathepsin Z; details: mouse cerebral cortex; diet 1 ppm Se, 100 days; * downregulation significant relative to Se-deficient mice
# Source text: as §1, §2, §3
# [4] = test system: Type 1 iodothyronine deiodinase; test: Intestinal gene expression: Type 1 iodothyronine deiodinase; details: mouse intestine; diet 1 ppm Se, 100 days; vs selenium deficient
# Source text: as §1, §2, §3
# [5] = test system: Complement component 1, q subcomponent, gamma polypeptide, C1qg; test: Cerebral cortex gene expression: C1qg; details: mouse cerebral cortex; diet 1 ppm Se, 100 days; vs selenium deficient; * = significant, p<0.01
# Source text: as §1, §2, §3
# Presenilin 1 = test: Cerebral cortex gene expression: Presenilin 1; details: mouse cerebral cortex; diet 1 ppm Se, 100 days; * significant relative to Se-deficient animals, P < 0.01
# Source text: as §1, §2, §3
# [6] = test system: Amyloid beta (A4) precursor-like protein (Aplp 1); test: Cerebral cortex gene expression: Aplp 1; details: mouse cerebral cortex; diet 1 ppm Se, 100 days; * significant relative to Se-deficient animals, P < 0.01
# Source text: as §1, §2, §3
# Cathepsin O = test: Cerebral cortex gene expression: Cathepsin O; details: mouse cerebral cortex; diet 1 ppm Se, 100 days; * downregulation significant relative to Se-deficient mice
# Source text: as §1, §2, §3
# [7] = test system: Gadd45g1p (Growth arrest and DNA-damage inducible 45 gamma interacting protein); test: Brain gene expression: Gadd45g1p; details: mouse brain; diet 1 ppm Se, 100 days; * significant relative to Se-deficient animals
# Source text: as §1, §2, §3
# Glutathione Peroxidase 3 = test: Intestinal gene expression (microarray): Glutathione Peroxidase 3; details: mouse intestine; diet 1 ppm Se, 100 days; vs selenium deficient; all p < 0.01
# Source text: as §1, §2, §3
# [8] = test system: Amyloid beta (A4) precursor protein-binding, family B, member 1 (Apbb1 or Fe65); test: Cerebral cortex gene expression: Apbb1/Fe65; details: mouse cerebral cortex; diet 1 ppm Se, 100 days; * significant relative to Se-deficient animals, P < 0.01
# Source text: as §1, §2, §3
# [9] = test system: Complement component 1, q subcomponent, beta polypeptide, C1qbp; test: Cerebral cortex gene expression: C1q beta polypeptide; details: mouse cerebral cortex; diet 1 ppm Se, 100 days; vs selenium deficient; * = significant, p<0.01
# Source text: as §1, §2, §3
# Gst pi 1 (Gstp1) = test: Brain gene expression: Gstp1; details: mouse brain; diet 1 ppm Se, 100 days; * significant relative to Se-deficient animals
# Source text: as §1, §2, §3
# Glutathione Peroxidase 1 = test: Intestinal gene expression (microarray): Glutathione Peroxidase 1; details: mouse intestine; diet 1 ppm Se, 100 days; vs selenium deficient; all p < 0.01
# Source text: as §1, §2, §3
# Junb = test: Cerebral cortex gene expression: Junb; details: mouse brain (neocortex); diet 1 ppm Se, 100 days; * significant relative to Se-deficient animals
# Source text: as §1, §2, §3
Compound,FC Gstm7 expression (Gst mu 7 (Gstm7)),FC C1qbp expression [1] [fold],FC Nicastrin expression (Nicastrin),FC Cathepsin D expression (Cathepsin D),FC Gadd45b expression (Gadd45b),FC C1qa expression [2] [fold],FC Cathepsin B expression (Cathepsin B),FC C1r expression [3] [fold],FC Cathepsin Z expression (Cathepsin Z),"Type 1 iodothyronine deiodinase expression level, fold increase [4] [fold]",FC C1qg expression [5] [fold],FC Presenilin 1 expression (Presenilin 1) [fold],FC Aplp 1 expression [6],FC Cathepsin O expression (Cathepsin O) [fold],FC Gadd45g1p expression [7] [fold],fold change (FC) in Glutathione Peroxidase 3 gene expression (Glutathione Peroxidase 3) [fold],FC Apbb1 (Fe65) expression [8],"FC Complement component 1, q subcomponent, beta polypeptide expression [9] [fold]",FC Gstp1 expression (Gst pi 1 (Gstp1)) [fold],fold change (FC) in Glutathione Peroxidase 1 gene expression (Glutathione Peroxidase 1) [fold],further results
"C[Se]CC[C@H](N)C(=O)O [SeM, selenomethionine]",−1.05 fold,1.12,1.04 fold,1.02 fold,−1.26 fold,−1.11,−1.03 fold,1.04,−1.13 fold,2.0,1.0,1.02,1.02 fold,−1.16,1.02,4.6,1.02 fold,−1.15,−1.04,4.9,FC Junb expression (Junb): −1.38 fold
"O=[Se](O)O [Sod-sel, sodium selenite]",−1.25* fold,1.11,−1.67* fold,−1.24* fold,−1.39* fold,−1.18,−1.13* fold,−1.29,−1.30* fold,2.8,−1.07,−1.11,−1.55* fold,−1.18,−1.12,3.5,−1.32* fold,−1.35,1.02,4.1,FC Junb expression (Junb): −1.59 fold
